The target of test [1] is T1, Hdm2 protein (amino acids 2-185) (Homo sapiens, UniProt Q00987).
T1 construct: Hdm2 protein (amino acids 2-185)
The experiment in a line: Fluorescence polarisation assay, inhibition of p53-Hdm2 interaction. The note with it: Hdm2 3 nM, Cy5-labelled p53-derived peptide 1 nM. The format is binding. As for the experimental part: Fluorescence Polarisation Assay
The inhibition of p53-Hdm2 interaction is measured by fluorescence polarization. Fluorescence polarization measures the rotational movement of molecules in a homogeneous suspension. For this assay, Hdm2 protein (amino acids 2-185) is combined with a Cy5-labelled p53-derived peptide optimised for Hdm2 binding (J. Med. Chem. 2000, 43, 3205-3208). Upon excitation of the Cy5 fluorescent ligand with linearly polarized light, the peptide rotates faster and emits light which is perpendicularly polarized. If the peptide is bound by Hdm2, rotation will slow down and the perpendicular component will decrease. Disruption of the formation of the peptide-Hdm2 complex due to an inhibitor molecule binding to the p53 binding site of Hdm2 results in faster rotation of the peptide. The ratiometric polarization assay readout is calculated from the parallel and perpendicular components of the fluorescence light with respect to the polarization of the excitation light.
The test is performed by combining 7 μl compounds diluted in dimethyl sulfoxide (DMSO) (10% final concentration) with 31.5 μl […] (final concentration 3 nM) in reaction buffer (PBS, 0.1% CHAPS, 1 mM DTT (dithiothreitol)). The solution is allowed to preincubate for 5 minutes at room temperature, followed by addition of 31.5 μl peptide in reaction buffer (final concentration 1 nM), and a further 5 minutes of incubation. A final volume of 20 μl (in triplicate) is distributed into small volume black 384-well plates (Greiner Bio-One GmbH, Frickenhausen, Germany). For measurement of samples, an Analyst AD multimode microplate reader (Molecular Devices Corporation, Sunnyvale, Calif., USA) with the following settings is used: Dichroic mirror 650 nm, Excitation 630 nm, Emission 695 nm. Raw values are expressed as percent of DMSO control, where background (reaction buffer with peptide but no Hdm2) is subtracted first from raw values. IC50 values are calculated by curve fitting using XLfit. If not specified, reagents were purchased from Sigma Chemical Co.

In test [2] the target is T2, MDM4 protein (amino acids 2-185) (Homo sapiens, UniProt O15151).
T2 construct: MDM4 protein (amino acids 2-185), tagged with a C-terminal Biotin moiety
T2 sequence (O15151 2-185): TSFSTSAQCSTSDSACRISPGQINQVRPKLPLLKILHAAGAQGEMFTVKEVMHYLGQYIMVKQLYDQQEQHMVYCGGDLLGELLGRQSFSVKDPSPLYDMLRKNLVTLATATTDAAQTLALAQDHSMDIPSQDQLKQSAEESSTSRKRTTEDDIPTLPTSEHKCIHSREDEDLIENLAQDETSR
The experiment in a line: Time resolved fluorescence energy transfer (TR-FRET) assay, inhibition of p53-Hdm4 interaction. The settings on record: MDM4-Bio 10 nM, Cy5-p53 peptide 20 nM. The format is binding. As for the experimental part: Time Resolved Fluorescence Energy Transfer (TR-FRET) Assay
The inhibition of p53-Hdm4 interaction is measured by time resolved fluorescence energy transfer (TR-FRET). Fluorescence energy transfer (or Foerster resonance energy transfer) describes an energy transfer between donor and acceptor fluorescent molecules. For this assay, MDM4 protein (amino acids 2-185), tagged with a C-terminal Biotin moiety, is used in combination with a Europium labeled streptavidin (Perkin Elmer, Inc., Waltham, Mass., USA) serving as the donor fluorophore. The p53 derived, Cy5 labeled peptide Cy5-TFSDLWKLL (p53 aa18-26) is the energy acceptor. Upon excitation of the donor molecule at 340 nm, binding interaction between MDM4 and the p53 peptide induces energy transfer and enhanced response at the acceptor emission wavelength at 665 nm. Disruption of the formation of the p53-MDM4 complex due to an inhibitor molecule binding to the p53 binding site of MDM4 results in increased donor emission at 615 nm. The ratiometric FRET assay readout is calculated from the raw data of the two distinct fluorescence signals measured in time resolved mode (countrate 665 nm/countrate 615 nm×1000).
The test is performed in white 1536w microtiterplates (Greiner Bio-One GmbH, Frickenhausen, Germany) in a total volume of 3.1 μl by combining 100 nl of compounds diluted in 90% DMSO/10% H2O (3.2% final DMSO concentration) with 2 μl Europium labeled streptavidin (final concentration 2.5 nM) in reaction buffer (PBS, 125 mM NaCl, 0.001% Novexin (consists of carbohydrate polymers (Novexin polymers), designed to increase the solubility and stability of proteins; Novexin Ltd., Cambridgeshire, United Kingdom), Gelatin 0.01%, 0.2% Pluronic (block copolymer fromethylenoxide and propyleneoxide, BASF, Ludwigshafen, Germany), 1 mM DTT), followed by the addition of 0.5 μl MDM4-Bio diluted in assay buffer (final concentration 10 nM). Allow the solution to pre-incubate for 15 minutes at room temperature, followed by addition of 0.5 μl Cy5-p53 peptide in assay buffer (final concentration 20 nM). Incubate at room temperature for 10 minutes prior to reading the plate. For measurement of samples, an Analyst GT multimode microplate reader (Molecular Devices) with the following settings is used: Dichroic mirror 380 nm, Excitation 330 nm, Emission Donor 615 nm and Emission Acceptor 665 nm. IC50 values are calculated by curve fitting using XLfit. If not specified, reagents are purchased from Sigma Chemical Co, St. Louis, Mo., USA.
A general note: In TR-FRET formats the signal depends on donor and acceptor labels being close together.

A word on the IC50: it is the point on the concentration scale where inhibition reaches its midpoint.

T1 sequence (Q00987 2-185): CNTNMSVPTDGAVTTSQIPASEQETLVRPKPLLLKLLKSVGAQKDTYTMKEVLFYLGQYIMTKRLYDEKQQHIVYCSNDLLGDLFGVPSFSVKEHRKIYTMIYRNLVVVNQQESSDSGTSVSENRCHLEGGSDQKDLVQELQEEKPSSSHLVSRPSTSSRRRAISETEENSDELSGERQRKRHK

On to `Fc1cc2c(-c3c(-c4ccccc4)ncn3Cc3ccc4cc[nH]c4c3)c[nH]c2cc1Cl` [Example 135], for which the IC50 in test [1] was determined as 7.2 µM; in test [2], 68.3 µM.
On the same counts, the results for `Oc1cccc(-c2ncn(Cc3ccc(Cl)cc3)c2-c2c[nH]c3cc(Cl)c(F)cc23)c1` [Example 142, 3-[1-(4-Chloro-benzyl)-5-(6-chloro-5-fluoro-1H-indol-3-yl)-1H-imidazol-4-yl]-phenol] are 0.64 µM and 43.4 µM.
The corresponding values for `OCc1cc(Cl)ccc1Cn1cnc(-c2ccccc2)c1-c1c[nH]c2cc(Cl)c(F)cc12` [Example 148] are 0.11 µM and 55.3 µM.
As for `O=C(CN1CCN(CCNC(=O)c2[nH]c3cc(Cl)ccc3c2-c2c(-c3ccccc3)ncn2Cc2ccc(Cl)cc2)CC1)Nc1cccnc1` [Example 271], the IC50 in test [1] amounted to 0.3 µM; in test [2], 54.9 µM.
The corresponding values for `O=C(NCCN1CCN(Cc2ccccn2)C1=O)c1[nH]c2cc(Cl)ccc2c1-c1c(-c2ccccc2)ncn1Cc1ccc(Cl)cc1` [Example 328, 6-Chloro-3-[3-(4-chloro-benzyl)-5-phenyl-3H-imidazol-4-yl]-1H-indole-2-carboxylic acid [2-(2-oxo-3-pyridin-2-ylmethyl-imidazolidin-1-yl)-ethyl]-amide] are 0.19 µM and 63.7 µM.

The values are drawn from US8053457B2, “3-imidazolyl-indoles for the treatment of proliferative diseases” (Novartis AG, priority 2007, dated 2011).
